Data as given in patent US12448383B2, “Compounds and methods for treatment of viral infections” (priority 2022, dated 2025).

Assays:
[1] = physchem
[2] = system: SARS Coronavirus 2 recombinant with NanoLuc (SARS-CoV2-NLuc) in A549-hACE2 cells; experiment: microbe, parasite or virus in culture; assay type: cell-based; conditions: A549; read-out: EC50 SARS CoV2 NanoLuc A549 384
[3] = Plasma stability; assay type: in vitro ADME; parameters: unit not given here; conditions: 37° C., 2 μM substrate
Outline: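 LC-MS (Q-Exactive, 5 ppm tolerance, 0.1% formic acid water/acetonitrile gradient) quantified compound in quenched aliquots. Aliquots were taken at 0.05, 0.5, 1, 2, 3 and 4 hr and quenched with internal-standard solution, and supernatants were diluted with water after centrifugation.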

[4] = system: Respiratory syncytial virus recombinant with luciferase (RSV-Luc5) in Normal Human Bronchial Epithelial (NHBE) cells; experiment: microbe, parasite or virus in culture; assay type: cell-based; conditions: read-out: EC50 RSVFluc-NHBE 384 V2
[5] = system: Caco-2 cells (clone C2BBe1); experiment: CACO-2 permeability; assay type: in vitro ADME; parameters: unit not given here; conditions: for DM Caco2 A to B: apical to basolateral, donor pH 6.5, receiver pH 7.4; for DM Caco2 B to A: basolateral to apical
Outline: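 A-to-B and B-to-A flux measured by LC-MS/MS from receiver samples taken at 1 and 2 h, with donor sampled at 0 and 2 h and recovery checked. Buffers: pH 6.5 HBSS with 200 μM BNPP on the donor side, pH 7.4 with BSA on the receiver side. Monolayers were 21-day cultures, TEER-verified, in duplicate wells.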

[6] = CC50 MT4 cytotoxicity (Cell-Titer Glo); assay type: cell-based; conditions: human
Outline: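 CC50 values are the concentrations cutting viability by 50%, fitted by non-linear regression against untreated (100%) and 2 μM puromycin (0%) controls. Cell-Titer Glo luminescence measured after 4-5 days at 37° C exposure of uninfected MT-4 and HEp-2 cells to 3-fold dilutions spanning 15 nM to 100,000 nM.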

[7] = system: Respiratory syncytial virus recombinant with luciferase (RSV-Luc5) in HEp-2 cells; experiment: microbe, parasite or virus in culture; assay type: cell-based; conditions: human respiratory syncytial virus, HEp-2, read-out: EC50 RSVFluc-Hep2 384 V2
[8] = GI S9 stability - no PMSF; assay type: in vitro ADME; conditions: pH 7.4; human intestinal S9, PMSF-free; read-out: GIS9-HUMAN-NoPMSF T1/2
Outline: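 Stability was assessed by Q-Exactive LC-MS peak area ratios against internal standard, tracking loss of parent and appearance of nucleoside metabolite Reference Compound A. Incubations used 2 μM compound in 1 mg/mL intestinal S9 without PMSF (PBS, pH 7.4), with six samples taken over 120 min.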

Question: Which results are given for `N#C[C@@]1(c2ccc3c(N)ncnn23)O[C@H](COC(=O)OCC2CC(F)(F)C2)[C@@H](O)[C@H]1O` [Compound 115, ((2R,3S,4R,5R)-5-(4-aminopyrrolo[2,1-f][1,2,4]triazin-7-yl)-5-cyano-3,4-dihydroxytetrahydrofuran-2-yl)methyl ((3,3-difluorocyclobutyl)methyl) carbonate]?
Answer: logD [1]: 1.4; EC50 [2]: 1760 nM; STA Human Plasma 37 [3]: 41.2; EC50 [4]: 990 nM; DM Caco2 A to B [5]: 0.91; DM Caco2 B to A [5]: 8.32; CC50 [6]: > 50000 nM; EC50 [7]: 228 nM; half-life at 2 µM [8]: 34.9 s

Question: For `N#C[C@@]1(c2ccc3c(N)ncnn23)O[C@H](COC(=O)OCC2(c3ccccc3)CC2)[C@@H](O)[C@H]1O` [Compound 116, ((2R,3S,4R,5R)-5-(4-aminopyrrolo[2,1-f][1,2,4]triazin-7-yl)-5-cyano-3,4-dihydroxytetrahydrofuran-2-yl)methyl ((1-phenylcyclopropyl)methyl) carbonate], which logD [1] is on record?
Answer: 2.1

Question: And the EC50 [2]?
Answer: 822 nM

Question: What about the “STA Human Plasma 37” value [3] of the same compound?
Answer: 26.4

Question: And the EC50 [4]?
Answer: 864 nM

Question: What about the “DM Caco2 A to B” value [5] of the same compound?
Answer: 4.18

Question: And the “DM Caco2 B to A” value [5]?
Answer: 17.53

Question: And the CC50 [6]?
Answer: > 50000 nM

Question: And the EC50 [7]?
Answer: 321 nM

Question: And the half-life at 2 µM [8]?
Answer: 37.8 s

Question: For `CC1(C)CC(COC(=O)OC[C@H]2O[C@@](C#N)(c3ccc4c(N)ncnn34)[C@H](O)[C@@H]2O)C1` [Compound 117, ((2R,3S,4R,5R)-5-(4-aminopyrrolo[2,1-f][1,2,4]triazin-7-yl)-5-cyano-3,4-dihydroxytetrahydrofuran-2-yl)methyl ((3,3-dimethylcyclobutyl)methyl) carbonate], which logD [1] is on record?
Answer: 2.3

Question: And the EC50 [2]?
Answer: 778 nM

Question: What about the “STA Human Plasma 37” value [3] of the same compound?
Answer: 86

Question: What about the EC50 [4] of the same compound?
Answer: 1380 nM

Question: What about the “DM Caco2 A to B” value [5] of the same compound?
Answer: 6.18

Question: What about the “DM Caco2 B to A” value [5] of the same compound?
Answer: 10.53

Question: And the CC50 [6]?
Answer: > 50000 nM

Question: And the EC50 [7]?
Answer: 494 nM

Question: And the half-life at 2 µM [8]?
Answer: 37 s

Question: With `N#CC1(COC(=O)OC[C@H]2O[C@@](C#N)(c3ccc4c(N)ncnn34)[C@H](O)[C@@H]2O)CC1` [Compound 118, ((2R,3S,4R,5R)-5-(4-aminopyrrolo[2,1-f][1,2,4]triazin-7-yl)-5-cyano-3,4-dihydroxytetrahydrofuran-2-yl)methyl ((l-cyanocyclopropyl)methyl) carbonate] as the compound, how does the logD [1] read?
Answer: 0.7

Question: And the EC50 [2]?
Answer: 6800 nM

Question: What about the “STA Human Plasma 37” value [3] of the same compound?
Answer: 59.4

Question: What about the EC50 [4] of the same compound?
Answer: 1820 nM

Question: And the “DM Caco2 A to B” value [5]?
Answer: 0.07

Question: What about the “DM Caco2 B to A” value [5] of the same compound?
Answer: 1.67

Question: And the CC50 [6]?
Answer: > 50000 nM

Question: And the EC50 [7]?
Answer: 1760 nM

Question: And the half-life at 2 µM [8]?
Answer: 247 s

Question: Which results are given for `N#CCC1(COC(=O)OC[C@H]2O[C@@](C#N)(c3ccc4c(N)ncnn34)[C@H](O)[C@@H]2O)CC1` [Compound 119, ((2R,3S,4R,5R)-5-(4-aminopyrrolo[2,1-f][1,2,4]triazin-7-yl)-5-cyano-3,4-dihydroxytetrahydrofuran-2-yl)methyl ((1-(cyanomethyl)cyclopropyl)methyl) carbonate]?
Answer: logD [1]: 0.9; EC50 [2]: 8820 nM; STA Human Plasma 37 [3]: 40.7; EC50 [4]: 2190 nM; DM Caco2 A to B [5]: 0.07; DM Caco2 B to A [5]: 1.91; CC50 [6]: > 50000 nM; EC50 [7]: 2200 nM; half-life at 2 µM [8]: 179 s

Question: Which logD [1] does the source give for `N#C[C@@]1(c2ccc3c(N)ncnn23)O[C@H](COC(=O)OCC2(C(F)(F)F)CC2)[C@@H](O)[C@H]1O` [Compound 120, ((2R,3S,4R,5R)-5-(4-aminopyrrolo[2,1-f][1,2,4]triazin-7-yl)-5-cyano-3,4-dihydroxytetrahydrofuran-2-yl)methyl ((1-(trifluoromethyl)cyclopropyl)methyl) carbonate] here?
Answer: 1.6

Question: And the EC50 [2]?
Answer: 1410 nM

Question: What about the “STA Human Plasma 37” value [3] of the same compound?
Answer: 38.7

Question: And the EC50 [4]?
Answer: 1260 nM

Question: And the “DM Caco2 A to B” value [5]?
Answer: 0.77

Question: And the “DM Caco2 B to A” value [5]?
Answer: 8.35

Question: And the CC50 [6]?
Answer: > 50000 nM

Question: And the EC50 [7]?
Answer: 816 nM

Question: And the half-life at 2 µM [8]?
Answer: 36.3 s

Question: What does the source list for `N#CC12CC(COC(=O)OC[C@H]3O[C@@](C#N)(c4ccc5c(N)ncnn45)[C@H](O)[C@@H]3O)(C1)C2` [Compound 121, ((2R,3S,4R,5R)-5-(4-aminopyrrolo[2,1-f][1,2,4]triazin-7-yl)-5-cyano-3,4-dihydroxytetrahydrofuran-2-yl)methyl ((3-cyanobicyclo[1.1.1]pentan-1-yl)methyl) carbonate]?
Answer: logD [1]: 1.1; EC50 [2]: 7970 nM; STA Human Plasma 37 [3]: 107.7; EC50 [4]: 1560 nM; DM Caco2 A to B [5]: 0.08; DM Caco2 B to A [5]: 4.15; CC50 [6]: > 50000 nM; EC50 [7]: 1510 nM; half-life at 2 µM [8]: 95 s

Question: Which results are given for `CC1(COC(=O)OC[C@H]2O[C@@](C#N)(c3ccc4c(N)ncnn34)[C@H](O)[C@@H]2O)CCCC1` [Compound 123, ((2R,3S,4R,5R)-5-(4-aminopyrrolo[2,1-f][1,2,4]triazin-7-yl)-5-cyano-3,4-dihydroxytetrahydrofuran-2-yl)methyl ((1-methylcyclopentyl)methyl) carbonate]?
Answer: logD [1]: 2.2; EC50 [2]: 1160 nM; STA Human Plasma 37 [3]: 96.5; EC50 [4]: 1810 nM; DM Caco2 A to B [5]: 3.18; DM Caco2 B to A [5]: 9.88; CC50 [6]: > 50000 nM; EC50 [7]: 720 nM; half-life at 2 µM [8]: 36.9 s

Question: For `CCCCCCCCCCOC(=O)OC[C@H]1O[C@@](C#N)(c2ccc3c(N)ncnn23)[C@H](O)[C@@H]1O` [Compound 124, ((2R,3S,4R,5R)-5-(4-aminopyrrolo[2,1-f][1,2,4]triazin-7-yl)-5-cyano-3,4-dihydroxytetrahydrofuran-2-yl)methyl decyl carbonate], which logD [1] is on record?
Answer: 3.7

Question: What about the EC50 [2] of the same compound?
Answer: 1140 nM

Question: What about the “STA Human Plasma 37” value [3] of the same compound?
Answer: 192.3

Question: What about the EC50 [4] of the same compound?
Answer: 625 nM

Question: What about the “DM Caco2 A to B” value [5] of the same compound?
Answer: 0.08

Question: And the “DM Caco2 B to A” value [5]?
Answer: 7.35

Question: And the CC50 [6]?
Answer: 27600 nM

Question: What about the EC50 [7] of the same compound?
Answer: 723 nM

Question: What about the half-life at 2 µM [8] of the same compound?
Answer: 44.6 s

Question: Which results are given for `N#C[C@@]1(c2ccc3c(N)ncnn23)O[C@H](COC(=O)OC23CC4CC(CC(C4)C2)C3)[C@@H](O)[C@H]1O` [Compound 154, (3S,5S,7S)-adamantan-1-yl (((2R,3S,4R,5R)-5-(4-aminopyrrolo[2,1-f][1,2,4]-triazin-7-yl)-5-cyano-3,4-dihydroxytetrahydrofuran-2-yl)methyl) carbonate]?
Answer: logD [1]: 2.6; EC50 [2]: 34000 nM; STA Human Plasma 37 [3]: 1584; EC50 [4]: 11000 nM; DM Caco2 A to B [5]: 2.08; DM Caco2 B to A [5]: 14.67; CC50 [6]: > 50000 nM; EC50 [7]: 11700 nM; half-life at 2 µM [8]: 16700 s

Question: With `CC1=CCC(C(C)(C)OC(=O)OC[C@H]2O[C@@](C#N)(c3ccc4c(N)ncnn34)[C@H](O)[C@@H]2O)CC1` (stereo partly drawn) [Compound 155, ((2R,3S,4R,5R)-5-(4-aminopyrrolo[2,1-f][1,2,4]triazin-7-yl)-5-cyano-3,4-dihydroxytetrahydrofuran-2-yl)methyl (2-(4-methylcyclohex-3-en-1-yl)propan-2-yl) carbonate] as the compound, how does the logD [1] read?
Answer: 2.8

Question: What about the EC50 [2] of the same compound?
Answer: 3190 nM

Question: And the “STA Human Plasma 37” value [3]?
Answer: 1584

Question: What about the EC50 [4] of the same compound?
Answer: 1120 nM

Question: What about the “DM Caco2 A to B” value [5] of the same compound?
Answer: 3.06

Question: What about the “DM Caco2 B to A” value [5] of the same compound?
Answer: 10.35

Question: What about the CC50 [6] of the same compound?
Answer: > 50000 nM

Question: And the EC50 [7]?
Answer: 1570 nM

Question: What about the half-life at 2 µM [8] of the same compound?
Answer: 4650 s
